Assays:
Format in all cases: physicochemical
[1] = Visual observation of the cyclodextrin-free CFZ-API sample formulation (FIG. 1); conditions: CFZ-API 2 mg/ml in water in the presence of phosphate buffer solution (PBS)
Source text: FIG. 1 illustrates a visual comparison of carfilzomib active ingredient in (a) water, (b) cyclodextrin (CAPTISOL®) and cyclodextrin-free formulation of the present invention
Carfilzomib (CFZ) is a proteasomal inhibitor and active ingredient of KYPROLIS®, a lyophilized drug product which is for the treatment of multiple myeloma. The current commercial formulation of KYPROLIS contains CAPTISOL®, which is a cyclodextrin used to help solubility the CFZ-API. The present invention provides a stable, cyclodextrin-free formulations for CFZ-API in an aqueous solution which is suitable for injection. FIG. 1 illustrates (a) insoluble CFZ-API in water in the presence of phosphate buffer solution (PBS) (left vial); (b) current commercial KYPROLIS formulation containing CAPTISOL (middle vial); and (c) the cyclodextrin free formulation of the invention (right vial). Each sample contains CFZ-API concentration of 2 mg/ml.

[2] = Aqueous phase solvents screening to dissolve CFZ-API to about 2 mg/ml (visual, RP-HPLC after filtration); conditions: aqueous solution around pH 3.0 to 3.5 (methane sulfonic acid) with 10,000 MW PVP
Source text: In Step 1 of the flow scheme preparation, non-aqueous solvents consisting of water miscible organic solvents and a co-solvent system were first added to dissolve the CFZ-API solid due its very low water solubility. […] The solution was then filtered by using 0.22 μm PES syringe filter equipped on a NORMJECT® (silicone free) syringe. The resulting filtrate was then checked for CFZ-API solubility recovery and stability on reverse phase high performance liquid chromatography (RP-HPLC). RP-HPLC was used to determine peak degradation as well as CFZ-API recovery through the use of a 3 to 5 point reference standard curve. Peak integration of standards was taken against standard buffer, 50% acetonitrile in water; while peak integration of formulation samples was taken against buffer of the formulation.

[3] = Lyophilization and bulking agent screening
Protocol: 1 mL CFZ-API liquid formulation fill as prepared above in 3 mL Schott 1A glass vial was loaded into a VirTis Genesis 12 EL lyophilizer (TS Systems LyoStar™-3, SP Scientific, Warminster, PA). The lyophilization cycle used for screening bulking agents consisted of holding shelf temperature at 4° C. for 30 minutes then cooling the shelf to −45° C. at 0.2° C./min. The annealing step was then performed at from −45° C. to −12° C. at 0.3° C./min. The primary drying and secondary drying shelf temperatures were −25° C. and 25° C., respectively. The heating rate applied to the primary and secondary drying were 0.2° C./min and 0.1° C./min, respectively.
Table 5 describes the initial lyophilization study results of formulations containing bulking agents such as PVP 12,000 MW, mannitol, or glycine pre and post lyophilization. PVP was selected as a co-solubilizing agent candidate because of high solubility of CFZ-API in PVP pre and post lyophilization as discussed above. […]
Results from the lyophilization and bulking agent screening produced mostly poor lyophilized cakes, however two selected bulking agent provided cakes that looked better in overall drug product presentation. […] The CFZ-API recovery of 1.8 mg/ml was lower than the expected of 2 mg/ml possibly due to the other components of the powder absorbing the water, making it more dilute than theoretically measured.

[4] = Organic water miscible solvent screening to dissolve CFZ-API at high concentration; conditions: in NMP and DMSO
Protocol: Non-aqueous phase: (a) 200 mg/ml to 250 mg/ml of CFZ-API target concentration for the water miscible solvent screening; and (b) 20 to 50 mg/ml of CFZ-API target concentration for the co-solvent screening; and Aqueous phase: about 2 mg/ml target CFZ-API final concentration.
Since CFZ-API is extremely insoluble in water, various organic water miscible solvents were first screened to dissolve CFZ-API drug substance powder.

## CC(C)C[C@H](NC(=O)[C@H](CCc1ccccc1)NC(=O)CN1CCOCC1)C(=O)N[C@@H](Cc1ccccc1)C(=O)N[C@@H](CC(C)C)C(=O)[C@@]1(C)CO1 [CFZ-API, Carfilzomib]
[1]
  Visual observation (FIG. 1): insoluble
[2]
  CFZ-API solubilized: ≥ 90%
[3]; PVP 10% to 40%
  CFZ-API solubility trend with PVP concentration: higher CFZ-API solubility
[3]; PVP 10,000, 12,000 and 17,000 MW
  CFZ-API solubility trend with PVP molecular weight: more soluble in lower MW PVP
[4]
  CFZ-API solubility: highly soluble
